Structures can show the parent of a compound that is named as a salt.

By melting point is commonly meant the temperature of the solid-liquid transition.

The subject of the first data set is histamine-induced skin reactions. Nature of the data set: Effect on histamine-induced skin reactions in guinea pigs. The class given is in vivo, guinea pig. The settings on record: 1 hour before intradermal histamine, Table 1. The method, then:
Effect on Histamine-induced Skin Reactions in Guinea Pigs
(§1) Male Hartley guinea pigs weighing about 500 g were used. After the dorsal hair was shaved under ether anesthesia, 1 ml of a 2.5% pontamine sky blue solution was injected intravenously administered, and then 0.1 ml of histamine at 3 μg/ml was injected intradermally into 2 sites (left and right) in the back. Thirty minutes after the injection of histamine, animals were killed by bleeding and the skin was removed. Two perpendicular diameters (mm) of each blue spot on the inside of the skin were measured and multiplied; the mean for the two products was taken as the microvascular permeability index. Test compounds were suspended in a 5% gum arabic solution and orally administered in a volume of 0.2 ml/100 g body weight 1 hour before histamine administration. Animals in the control group received the same volume of a 5% gum arabic solution. The suppression rate of the sample for the title reaction was calculated using Equation 1.
Inhibition (%) of histamine-induced skin reactions=100×(1−vascular permeability index in the presence of drug/vascular permeability index in control group) Equation 1
as §1, with “bleeding and he skin was” for “bleeding and the skin was”, “measured and multiplied, the mean” for “measured and multiplied; the mean”
For the compound `CC(C)(C(=O)O)c1cn2nc(NCCCN3CCC(OC(c4ccccc4)c4ccccc4)CC3)ccc2n1.O.O` [Example 135A, 2-[6-[3-[4-(Diphenylmethoxy)piperidino]propylamino]imidazo[1,2-b]pyridazin-2-yl)-2-methylpropionic Acid Dihydrate], the “Inhibition (%) of Histamine-induced Skin Reactions, 3 mg/kg Oral Administration” value (“Inhibition (%)” for short) worked out at 91%.

As to `O=C(CCN1CCC(OC(c2ccccc2)c2ccccc2)CC1)Nc1ccc2ncnn2n1` [Example 18A], the “Inhibition (%)” value was determined as 91%.

For `CC(C)(C(=O)O)c1cn2nc(OCCCN3CCC(OC(c4ccccc4)c4ccccc4)CC3)ccc2n1` [Example 45A], the “Inhibition (%)” value is recorded as 91%.

Still in this data set, the particulars now being: 1 hour before intradermal histamine, Table 3.
Turning to `CC(C)(C(=O)O)c1cn2nc(NCCCN3CCC(OC(c4ccccc4)c4ccccc4)CC3)ccc2n1.O.O` [Example 135A, 2-[6-[3-[4-(Diphenylmethoxy)piperidino]propylamino]imidazo[1,2-b]pyridazin-2-yl)-2-methylpropionic Acid Dihydrate], the “Inhibition (%)” value came to 91%.

Tested on in a further data set: not given
Assay: not given
Details: not given
`CC(C)(C)OC(=O)c1nc2ccc(NCCCN3CCC(OC(c4ccccc4)c4ccccc4)CC3)nn2n1` [Example 116A, tert-Butyl[6-[3-[4-(Diphenylmethoxy)piperidino]propylamino][1,2,4]triazolo[1,5-b]pyridazin-2-yl]carboxylate] returned a melting point of 133 to 135 °C.

Turning to `CC(C)(C(=O)O)c1cn2nc(CCCN3CCC(OC(c4ccccc4)c4ccccc4)CC3)ccc2n1` [Example 102A, 2-[6-[3-[4-(Diphenylmethoxy)piperidino]propyl]imidazo[1,2-b]pyridazin-2-yl]-2-methylpropionic Acid], the melting point was 195 to 205 °C.

For `O=C(CN1CCN(C(c2ccccc2)c2ccccc2)CC1)Nc1ccc2ncnn2n1` [Example 24A, 2-[4-(Diphenylmethyl)-1-piperazinyl]-N-([1,2,4]triazolo[1,5-b]pyridazin-6-yl)acetamide], the melting point fell in the range of 203 to 204 °C.

As for `CC(C)c1cc2ncnn2nc1OCCOCCN1CCN(C(c2ccccc2)c2ccccc2)CC1` [Example 61A, 6-[2-[2-[4-(Diphenylmethyl)-1-piperazinyl]ethoxy]ethoxy]-7-isopropyl[1,2,4]triazolo[1,5-b]pyridazine], the melting point was in the range of 119 to 120 °C.

As to `O=C(OCCOc1ccc2ncnn2n1)N1CCN(C(c2ccccc2)c2ccccc2)CC1` [Example 26A, 6-[2-[4-(Diphenylmethyl)-1-piperazinyl-carbonyloxy]ethoxy][1,2,4]triazolo[1,5-b]pyridazine], the melting point lay in the range of 157 to 159 °C.

In turn, `O=C(O)c1nc2ccc(NCCCN3CCC(OC(c4ccccc4)c4ccccc4)CC3)nn2n1` [Example 117A, [6-[3-[4-(Diphenylmethoxy)piperidino]propylamino][1,2,4]triazolo[1,5-b]pyridazin-2-yl]carboxylic Acid] had a melting point of 135 to 138 °C.

As to `CCOC(=O)CNC(=O)c1nc2ccc(NCCCN3CCC(OC(c4ccccc4)c4ccccc4)CC3)nn2c1C` [Example 127A, N-[6-[3-[4-(Diphenylmethoxy)piperidino]propylamino]-3-methylimidazo[1,2-b]pyridazine-2-carbonyl]glycine Ethyl Ester], the melting point fell in the range of 158 to 160 °C.

`O=C(O)c1nc2ccc(OCCCN3CCC(OC(c4ccccc4)c4ccccc4)CC3)nn2n1` [Example 123A, [6-[3-[4-(Diphenylmethoxy)piperidino]propoxy][1,2,4]triazolo[1,5-b]pyridazin-2-yl]carboxylic Acid] came in with a melting point of 173 to 177 °C.

`CC(C)OC(=O)c1nc2ccc(OCCCN3CCC(OC(c4ccccc4)c4ccccc4)CC3)nn2n1` [Example 122A, Isopropyl[6-[3-[4-(Diphenylmethoxy)piperidino]propoxy][1,2,4]triazolo[1,5-b]pyridazin-2-yl]carboxylate]: the melting point lay within 126 to 127 °C.

Compound `CC(C)(C(=O)O)c1cn2nc(NCCCN3CCC(OC(c4ccccc4)c4ccccc4)CC3)ccc2n1.O.O` (hydrate or solvate) [Example 135A, 2-[6-[3-[4-(Diphenylmethoxy)piperidino]propylamino]imidazo[1,2-b]pyridazin-2-yl)-2-methylpropionic Acid Dihydrate] came in with a melting point of 203 to 205 °C.

As to `CCOC(=O)C(C)(C)c1cn2nc(NCCCN3CCC(NC(c4ccccc4)c4ccccc4)CC3)ccc2n1` [Example 108A, Ethyl 2-[6-[3-[4-(Diphenylmethylamino)piperidino]propylamino]imidazo[1,2-b]pyridazin-2-yl]-2-methylpropionate], the melting point is 115 to 117 °C.

For `Cc1cc2nc(C(C)(C)C(=O)O)cn2nc1OCCCN1CCC(OC(c2ccccc2)c2ccccc2)CC1` [Example 89A, 2-[6-[3-[4-(Diphenylmethoxy)piperidino]propoxy]-7-methylimidazo[1,2-b]pyridazin-2-yl]-2-methylpropionic Acid], the melting point worked out at 122 °C.

For the compound `c1ccc(C(OC2CCN(c3ccc4ncnn4n3)CC2)c2ccccc2)cc1` [Example 11A, 6-[4-(Diphenylmethoxy)piperidino][1,2,4]triazolo[1,5-b]pyridazine], the melting point is 137 to 139 °C.

For `CC(C)c1cc2ncnn2nc1SCCOCCN1CCN(C(c2ccccc2)c2ccccc2)CC1` (as salt: hydrochloride) [Example 59A, 6-[2-[2-[4-(Diphenylmethyl)-1-piperazinyl]ethoxy]ethylthio]-7-isopropyl[1,2,4]triazolo[1,5-b]pyridazine Dihydrochloride], the melting point lay within 143 to 145 °C.

With `Cc1nc2ccc(OCCCN3CCC(OC(c4ccccc4)c4ccccc4)CC3)nn2n1` [Example 21A, 6-[3-[4-(Diphenylmethoxy)piperidino]propoxy]-2-methyl[1,2,4]triazolo[1,5-b]pyridazine], the melting point was 134 to 136 °C.

In the case of `O=C(O)c1cc2ncnn2nc1NCCCN1CCC(OC(c2ccccc2)c2ccccc2)CC1` [Example 119A, [6-[3-[4-(Diphenylmethoxy)piperidino]propylamino][1,2,4]triazolo[1,5-b]pyridazin-7-yl]carboxylic Acid], the melting point is 207 to 209 °C.

For `c1ccc(C(OC2CCN(CCCOc3ccc4ncnn4n3)CC2)c2ccccc2)cc1` (as salt: fumarate) [Example 2A, 6-[3-[4-(Diphenylmethoxy)piperidino]propoxy][1,2,4]triazolo[1,5-b]pyridazine Fumarate], the melting point is 157 to 159 °C.

`COc1cn2nc(OCCCN3CCC(OC(c4ccccc4)c4ccccc4)CC3)ccc2n1` [Example 41A, 6-[3-[4-(Diphenylmethoxy)piperidino]propoxy]-2-methoxyimidazo[1,2-b]pyridazine] yielded a melting point of 133 to 135 °C.

On to `O=C(CN1CCC(OC(c2ccccc2)c2ccccc2)CC1)Nc1ccc2ncnn2n1` [Example 23A, 2-[4-(Diphenylmethoxy)piperidino]-N-([1,2,4]triazolo[1,5-b]pyridazin-6-yl)acetamide], for which the melting point was 158 to 160 °C.

In the case of `CCOC(=O)CNC(=O)c1nc2ccc(NCCCN3CCC(OC(c4ccccc4)c4ccccc4)CC3)nn2c1Cl` [Example 111A, N-[3-Chloro-6-[3-[4-(diphenylmethoxy)piperidino]propylamino]imidazo[1,2-b]pyridazine-2-carbonyl]glycine Ethyl Ester], the melting point lay in the range of 178 to 180 °C.

Regarding `Cc1nc2ccc(NCCCN3CCC(OC(c4ccccc4)c4ccccc4)CC3)nn2n1` [Example 20A, 6-[3-[4-(Diphenylmethoxy)piperidino]propylamino]-2-methyl[1,2,4]triazolo[1,5-b]pyridazine], the melting point lay within 119 to 120 °C.

For the compound `COC(=O)c1nc2ccc(NCCCN3CCC(OC(c4ccccc4)c4ccccc4)CC3)nn2n1` [Example 36A, Methyl 6-[3-[4-(Diphenylmethoxy)piperidino]propylamino][1,2,4]triazolo[1,5-b]pyridazine-2-carboxylate], the melting point fell in the range of 93 to 96 °C.

Take `CCOC(=O)CCNC(=O)c1cn2nc(NCCCN3CCC(OC(c4ccccc4)c4ccccc4)CC3)ccc2n1` [Example 112A, N-[6-[3-[4-(Diphenylmethoxy)piperidino]propylamino]imidazo[1,2-b]pyridazine-2-carbonyl]-β-alanine Ethyl Ester]: the melting point lay within 83 to 86 °C.

`O=C(O)CNC(=O)c1nc2ccc(NCCCN3CCC(OC(c4ccccc4)c4ccccc4)CC3)nn2n1` [Example 125A, N-[6-[3-[4-(Diphenylmethoxy)piperidino]propylamino][1,2,4]triazolo[1,5-b]pyridazine-2-carbonyl]glycine] gave a melting point of 256 to 258 °C.

Regarding `c1ccc(C(OC2CCN(CCNc3ccc4ncnn4n3)CC2)c2ccccc2)cc1` [Example 13A, 6-[2-[4-(Diphenylmethoxy)piperidino]ethylamino][1,2,4]triazolo[1,5-b]pyridazine], the melting point was 152 to 154 °C.
